Assay [1] deals with T1, Dvl2PDZ (Homo sapiens, UniProt O14641).
T1 construct: protein fragments spanning amino acids 248-364 of the full-length Dvl2 were produced; made in house; host or cells: E. coli (pGEX system)
T1 sequence (O14641 248-364): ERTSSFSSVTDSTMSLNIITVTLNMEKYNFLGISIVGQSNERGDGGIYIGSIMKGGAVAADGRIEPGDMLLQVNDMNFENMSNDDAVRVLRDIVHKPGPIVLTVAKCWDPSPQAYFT
As to the kind of experiment: Competition ELISA, peptides binding to Dvl2PDZ. The source says: Many methods are known and can be used to identify the binding affinities of binding molecules (e.g. peptides, proteins, small molecules, etc.); for example, binding affinities can be determined as IC50 values using competition ELISAs. The IC50 value is defined as the concentration of binder which blocks 50% of Dvl PDZ domain binding to a ligand. For example, in solid phase assays, assay plates may be prepared by coating microwell plates (preferably treated to efficiently adsorb protein) with neutravidin, avidin or streptavidin. […] After further washing, the binding reactions are detected, often with an antibody recognizing the non-PDZ fusion partner and a labeled (such as horseradish peroxidase (HRP), alkaline phosphatase (AP), or a fluorescent tag such as fluorescein) secondary antibody recognizing the primary antibody. The plates are then developed with the appropriate substrate (depending on the label) and the signal quantified, such as using a spectrophotometric plate reader. […] Thus the ability of the various molecules to inhibit PDZ domain from binding a known PDZ domain binder can be measured.
Affinity assays—The binding affinities of peptides for Dvl2PDZ were determined as IC50 values using a competition ELISA, as previously described. […]
(In general: In an ELISA, binding on a coated surface is turned into a signal by an enzyme label.)

Assay [2] addresses T1, Dvl2PDZ. As to the kind of experiment: Fluorescence polarization assay, peptides binding to Dvl2PDZ. The method, then:
The binding affinities of synthetic peptides were also measured by Flourescence polarization assay. Serial dilution of purified Dvl2PDZ domain polypeptide (1-10 μM) was incubated with 10 nM probe peptide (FAM-KWYGWL-COOH) (SEQ ID NO: 169) in PBS, 0.1% Triton X100 as 30 μl volume in 96-well black HE96 plates (LJL Biosystem, Inc, Calif.), and incubated for 15 minutes at room temperature. Polarization measurements were performed in Analyst platereader (LJL Biosystems, Inc., Sunnyvale, Calif.). Ks=536 nM was derived from this assay by non-linear regression fitting with KaleidaGraph™. Competition experiments were performed by addition of serial dilution of the free peptides (0-500 μM) to solution with 10 nM probe and 1 μM Dvl2PDZ. The polarization was measured and IC50 values were derived as described above. Ki values were calculated as described previously.
(In fluorescence polarisation assays a small probe gives low polarisation when free and higher when bound to something large.)

The test system of assay [3] is β-catenin protein level in HEK293S cells. In words: Western blot of β-catenin protein level in HEK293S cells. Type of assay: cell-based. The following applies: 20 μM peptide, 24 hours, compared to DMSO and PEN. The procedure: HEK293S cells were treated with 20 μM DVLp and PEN for 24 hours. Cell lysate was prepared and subjected to SDS-PAGE. β-catenin was blotted by poly-clonal anti-β-catenin (Genentech, Inc., South San Francisco).
(§1) Cell culture, transfection and peptide treatment: HEK293 and H1703 were propagated according to the instructions from American Type Culture Collection. HEK293 cells were transfected with FuGene6 according to the manufacturer's instructions (Roche Molecular Biochemicals) at cell confluence of 50%. H1703 cells were transfected with Lipofectamine according to manufacturer's instruction at cell confluence of 80%. Cells were treated with medium containing peptide (5 μM-40 μM) 24 hours after transfection, and were routinely harvested 24 hours after the peptide treatment for additional assays.
Western Blot: Harvested cells were lysed with SIC lysis buffer, the supernatant was subjected to SDS-PAGE, which was transferred, blocked and blotted with proper primary antibody by a standard western blot protocol. Fluorescence labeled secondary antibodies (Alexa goat anti-mouse or anti-rabbit) were added and the results were analyzed by Li-core™.

Assay [4] relates to Wnt3a-stimulated β-catenin signaling in HEK293S cells. In words: TOPGLOW luciferase reporter assay in HEK293S cells. Type of assay: cell-based. The following applies: for Effect on Wnt3a-stimulated transcriptional activity (TopGlow): peptide up to 20 μM in medium. The procedure: HEK293S cells were transfected with the reporter plasmid pTOPGLOW combined with pRL reporter. Cell extract was prepared and the luciferase activity was measured. The relative luciferase unit (RLU) is TopGlow luciferase activity divided by Renila luciferase activity. The fold of activation is the RLU ratio between the Wnt3a-stimulated and non-stimulated cells. Cells were treated with either 10 μM (light bar) or 20 μM (dark bar) peptide ligands.
as §1
TOPGLOW assay: Cells were plated in 12-well plates. The TOPGLOW reporter plasmid was transfected transiently into cells as described above. TCF-mediated gene transcription was determined by pTOPGLOW luciferase activity, which was normalized to relative luciferase activities of pRL reporter (cotransfected internal control). All experiments were performed duplicated.
(In general: In a reporter assay the amount or activity of a reporter protein is the signal.)

“Also recorded” adds a separate entry of the source. No end group written: not given here.

By IC50 is commonly meant the concentration that inhibits the measured activity by half. For Ac-KGFGML-OH [Peptide D5, K G F G M L], the IC50 in assay [1] came out at 242000 nM.
The Ki is a measure of affinity in units of concentration, obtained from inhibition or displacement. For Ac-KWYGWL-OH [Peptide D1, K W Y G W L], in assay [2] (competition with 10 nM FAM-KWYGWL-COOH probe, 1 μM Dvl2PDZ, read-out: Ki measured by Flourescence polarization assay), the Ki worked out at 725 nM.
For the substance Ac-RQTKIVWFQNRRMKKGEIVLWSDIPG [DVLp_N3], the “β-catenin level in whole cell lysate upon Wnt3a stimulation” value in assay [3] is given as “significantly lower β-catenin levels”; in assay [3] (listed as Dvlp_N3), “reduced the Wnt-stimulated increase in β-catenin protein level”. For the same substance, the “Effect on Wnt3a-stimulated transcriptional activity (TopGlow)” value in assay [4] (HEK293S cells) was “inhibited Wnt3a-stimulated transcriptional activity significantly; also recorded: blocked the Wnt-stimulated β-catenin signaling”; in assay [4] (HEK293S cells, listed as Dvlp_N3) it was “significantly blocked the Wnt-stimulated increase in β-catenin signaling”. Further, in assay [4] (HEK293S cells, two independent experiments), the “Dose dependence of inhibition of Wnt-stimulated β-catenin signaling” value was “dose-dependent”. Also, the “Inhibition of Wnt3a-stimulated transcriptional activity” value in assay [4] (HEK293 cells, peptide 5-20 μM) is reported as “up to 80%”.
Turning to “Ac-GEIVLWSDIPG-NH2 [Peptide N3, G E I V L W S D I P G]”, in assay [2] (ratio of Ki values), the “Affinity lower than that of D1” value is reported as 6 fold.
As for “Ac-RQTKIWFQNRRMKWKK [PEN, reference compound]”, the “Effect on Wnt3a-stimulated transcriptional activity (TopGlow)” value in assay [4] (HEK293S cells) is reported as “did not show an inhibition effect”.
As to Ac-KWYGWF [Peptide D2, K W Y G W F], in assay [1], the IC50 worked out at 930 nM.
